From PubChem BioAssay (NCI)
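In this assay, cells in 96-well plates receive the compound at five concentrations for 48 hours. Endpoints are linearly interpolated between the surrounding concentrations. The concentration for full growth arrest is given as TGI.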

Legend:
Test in all cases: DTP human tumour cell line panel, 48 h
A498 renal = tested on: A498 renal
DLD-1 colon = tested on: DLD-1 colon
DMS 273 small cell lung = tested on: DMS 273 small cell lung
HCT-116 colon = tested on: HCT-116 colon
HCT-15 colon = tested on: HCT-15 colon
KM12 colon = tested on: KM12 colon
MDA-MB-435 = tested on: MDA-MB-435
SK-MEL-5 melanoma = tested on: SK-MEL-5 melanoma
TK-10 renal = tested on: TK-10 renal
XF 498 CNS = tested on: XF 498 CNS

Measured: TGI

O=c1cnn(C2OC(CO)C(O)C2O)c(=S)[nH]1 (stereo not given)
> 100 µM: all assays above
